Test results from patent US10772909B2, “System and method for insulin-mimetic of cartilage, bone, or osteochondral repair and piezoelectric composite scaffold” (New Jersey Institute of Technology, priority 2016, dated 2020).

Assays:
Human MSCs [1] = test: MSC growth on PCL scaffolds in growth medium (PicoGreen ds DNA cell number); format: cell-based; details: GM; for cell number, change from days 4 to 7: p<0.05; for cell number compared to the other groups: days 7 and 11
Procedure: MSCs were cultured on the scaffolds in the presence of Na2WO4 (Na2WO4.2H2O, MW=329.85 g/mol; Sigma Aldrich) in the range of 0.01-50 mM to determine which concentrations supported cell growth. Before cell seeding, scaffolds were cut into 6 mm diameter disks using a biopsy punch (Integra Miltek, York, Pa.), sterilized in 100% ethanol for 20 minutes and were air dried overnight. Cryopreserved MSCs were thawed and expanded in tissue culture treated polystyrene flasks (Nunc, Thermo Fisher Scientific, Waltham, Mass., USA) in growth medium (GM) comprised of Dulbecco's Modified Eagle's Medium (DMEM, Invitrogen, Grand Island, N.Y., USA), 10% fetal bovine serum (Hyclone, Thermo Fisher Scientific) and 1% antibiotic-antimycotic (Invitrogen) at 37° C. and 5% CO2 until 70-80% confluent. Cells were trypsinized using 0.25% Trypsin-EDTA (Thermo Fisher Scientific), resuspended in GM and then seeded onto scaffolds at 3.5×10^4 cells/cm^2 and cultured for 11 days in GM alone or with Na2WO4. Na2WO4 was added to GM leading to final Na2WO4 concentrations of 0, 0.01, 0.1, 1, 10 and 50 mM. Samples (n=4) were harvested and analyzed at days 4, 7 and 11 for cell number using the PicoGreen® ds DNA assay (Life Technologies).
MSCs of known cell number were used as a standard. Standards and samples were prepared by lysing the cells using 0.1% Triton X-100 (Sigma-Aldrich, Mo., USA). The cell lysate of samples and standards (n=4 per group) was mixed with an equal volume of Pico Green dye, which binds to the double-stranded (ds) DNA. Fluorescence intensity was measured with a microplate reader ((FLX800, Biotek Instruments, Vt., USA)) at 480 nm excitation and 520 nm emission. A standard curve of known cell number was used to determine the sample cell number.

Human MSCs [2] = test: Chondrogenesis culture: sGAG production (Blyscan); format: cell-based
Procedure: (§1) Chondrogenesis Culture. Cryopreserved MSCs were thawed and expanded in GM until 70-80% confluent. Cells were trypsininzed and then seeded on 6 mm diameter scaffold disks at 1.76×10^5 cells/cm^2 and cultured for 28 days in GM, chondrogenic induction medium (CCM), or CCM without insulin, according to previously published methods. CCM consisted of DMEM high glucose containing 4 mM L-glutamine (Invitrogen, Grand Island, N.Y., USA), 0.1 μM dexamethasone (Sigma-Aldrich), 0.17 mM ascorbic acid-2-phosphate (Wako Chemicals, Richmond, Va., USA), 1% ITS+(6.25 µg/mL insulin, 6.25 µg/mL transferrin, 6.25 ng/mL selenous acid, 5.35 μg/ml linoleic acid and 1.25 mg of bovine serum albumin) Premix Culture Supplement (Corning, Corning, N.Y., USA), 1× antibiotic-antimycotic, 1 mM sodium pyruvate (Sigma-Aldrich), 0.35 mM proline (Sigma-Aldrich), and 10 ng/mL recombinant human transforming growth factor-beta3 (TGF-β3, ProSpec, Israel). CCM without insulin consisted of CCM where the 1% ITS+Premix Culture Supplement was substituted with 1% stock solution (6.25 μg/ml transferrin and 6.25 ng/ml selenous acid, 5.35 μg/ml lionleic acid (Sigma-Aldrich) and 1.25 mg of bovine serum albumin (Fisher Scientific). Na2WO4 was added to all media leading to final Na2WO4 concentrations of 0, 0.01, 0.1 and 1 mM. Samples were harvested and analyzed for sulfated glycosaminoglycans (sGAG), cell number and gene expression at day 14 and 28 and for collagen type II and immunostaining at day 28.
(§2) Production of sGAG and cell number were determined. Samples were digested using papain (Sigma-Aldrich, Mo., USA) buffer overnight at 65 C. ° following manufacturer's protocol. The sGAG assay is used to measure the total sulfated proteoglycan content using Blyscan sGAG Assay Kit (Biocolor, UK). Cell lysate of samples (n=4 per group) and color reagent were combined in transparent 96-well plate and the absorbance at 656 nm was measured using a microplate spectrophotometer (EMax, Molecular Devices, Melville, N.Y., USA). sGAG concentration was determined relative to chondroitin sulfate standard curve. PicoGreen® ds DNA assay (Life Technologies) was used to determine the cell number. MSCs of known cell number were used as standards. Standards were prepared by lysing the cells using papain buffer. The cell lysate of samples and standards (n=4 per group) was mixed with an equal volume of Pico Green reagent. Fluorescence intensity was measured with a microplate reader ((FLX800, Biotek Instruments, Vt., USA)) at 480 nm excitation and 520 nm emission. A standard curve of known cell number was used to determine the sample cell number. GAG production was normalized to cell number.

Human MSCs [3] = test: Chondrogenesis culture: cell number (PicoGreen); format: cell-based
Procedure: as §1, §2

collagen type II = test: Collagen type II ELISA; format: cell-based, human; details: day 28
Procedure: as §1
Collagen type II production was quantified by enzyme-linked immunosorbent assay (ELISA) using a collagen type II detection kit (Chondrex Inc. Redmond, Wash., USA). The ELISA was conducted following the manufacturer's instructions. Briefly, samples (n=4 per group) were harvested at day 28 and washed with PBS. Collagen was digested by adding pepsin solution (0.1 mg/ml in 0.05 M acetic acid) at 4 C° for two days with gentle mixing. The digested samples were centrifuged for 3 minutes and supernatants were collected. Pancreatic elastase was added to the samples and incubated overnight at 4° C. Supernatants were then collected. The ELISA plate which was coated with collagen type II was prepared as described by the manufacturer and the absorbance at 490 nm was measured using a microplate spectrophotometer (Emax, Molecular Devices). The collagen type II production was determined relative to the standard curve.

[4] = Sodium tungstate in the scaffold: cell and tissue growth, cytocompatibility; format: cell-based; details: 0.01-5 weight (wt.) % sodium tungstate in the scaffold
[5] = 0.01 mM Na2WO4, CCM, day 28, p<0.05
[6] = 1 mM Na2WO4, CCM without insulin, day 28

Which “cell number, change from days 4 to 7” value (Human MSCs [1]; 0.01 mM Na2WO4) does the source give for `[Na+].[Na+].[O]=[W](=[O])([O-])[O-]` [Na2WO4, sodium tungstate] here?
Its value is “significantly increased in cell numbers”.

What about the “cell number, change from days 4 to 7” value (Human MSCs [1]; 0.1 mM Na2WO4) of the same molecule?
Its value is “significantly increased in cell numbers”.

And the “cell number compared to the other groups” value (Human MSCs [1]; 1 mM Na2WO4)?
Its value is “significantly lower cell numbers”.

What about the “cell number compared to the other groups” value (Human MSCs [1]; 10 mM Na2WO4) of the same molecule?
Its value is “significantly lower cell numbers”.

What about the “cell number compared to the other groups” value (Human MSCs [1]; 50 mM Na2WO4) of the same molecule?
Its value is “significantly lower cell numbers”.

What about the “sGAG production, change between days 14 and 28” value (Human MSCs [2]; 0.01 mM Na2WO4, CCM) of the same molecule?
The value was “significant increase in sGAG production”.

And the “sGAG production vs 0 mM group” value (Human MSCs [2]; 0.01 mM Na2WO4, CCM without insulin)?
Its value is “higher than 0 mM group in CCM without insulin but not significantly”.

And the “sGAG production vs all other groups” value (Human MSCs [2]; 0.01 mM Na2WO4, CCM, day 28, p<0.005)?
Its value is “higher sGAG production than all other groups”.

What about the “normalized sGAG to cell number vs 0 and 1 mM groups” value (Human MSCs [2]; [5]) of the same molecule?
The value was “significantly higher”.

What about the “sGAG production vs 0 mM group” value (Human MSCs [2]; 0.1 mM Na2WO4, CCM without insulin) of the same molecule?
Its value is “higher than 0 mM group in CCM without insulin but not significantly”.

What about the “sGAG production vs GM alone” value (Human MSCs [2]; 0.1 mM Na2WO4, GM, day 14) of the same molecule?
Its value is “significantly higher”.

What about the “normalized sGAG to cell number vs 0.01 mM” value (Human MSCs [2]; [6]) of the same molecule?
The value was “significantly lower normalized sGAG to cell number”.

What about the “sGAG vs all other groups” value (Human MSCs [2]; [6]) of the same molecule?
Its value is “significantly lower”.

What about the “cell number vs 0.1 mM” value (Human MSCs [3]; [5]) of the same molecule?
Its value is “significantly higher than 0.1 mM”.

What about the “cell number vs 0 mM” value (Human MSCs [3]; 0.1 mM Na2WO4, GM, day 14) of the same molecule?
Its value is “significantly higher”.

And the “cell number vs other groups” value (Human MSCs [3]; 1 mM Na2WO4, CCM)?
Its value is “significantly lower”.

What about the “cell number vs all other groups” value (Human MSCs [3]; [6]) of the same molecule?
Its value is “significantly lower cell numbers”.

And the “collagen type II production vs all other groups” value (collagen type II; 0.01 mM Na2WO4, CCM, p<0.001)?
The value was “highest collagen type II”.

And the “collagen type II production vs 0 mM group” value (collagen type II; 0.01 mM Na2WO4, GM, p<0.05)?
Its value is “significantly higher collagen type II”.

What about the “collagen type II production vs 0 mM and 1 mM” value (collagen type II; 0.1 mM Na2WO4, CCM, p<0.001) of the same molecule?
Its value is “significantly higher collagen type II production”.

And the “collagen type II production” value (collagen type II; 1 mM Na2WO4, CCM, p<0.001)?
Its value is “lowest”.

What about the “collagen type II production” value (collagen type II; CCM without insulin groups) of the same molecule?
The value was “not detected”.

And the “cell and tissue growth and cytocompatibility” value [4]?
Its value is “promoted excellent cell and tissue growth results and cytocompatibility results”.
